# Tests used:
# Cal-27 cells [1] = assay: Proliferation of tongue squamous cell carcinoma Cal-27 cells (CCK-8); assay type: cell-based; details: 48 h treatment, CCK-8, FIG. 1
# Description: Cells in good growth state were counted and inoculated into 96-well plates with 100 μL per well according to a certain cell density. After the cells adherence to the wall overnight, a medicament solution was added to intervene the cells. After 48 h of medicament treatment, CCK-8 reagent was added, 10 μL per well. After incubation for 2 h, the culture plates were taken out and detected at 450 nm wavelength of the enzymograph.
# Cal-27 cells [2] = assay: Killing effect of lymphocytes on tumor cells in Cal-27/PBMC co-culture (Incucyte); assay type: cell-based; details: compared with PBMC control group, anti-PD-1 antibody 5 μg/mL; for killing effect of lymphocytes on tumor cells: FIG. 5, Rg3 1, 5, 10 μM; for number of Cal-27 cells / killing effect of lymphocytes on tumor cells: FIG. 3, Rh2 1, 5, 10 μM, effect-to-target ratio 5:1
# Description: Cal-27 cells in good growth state were digested and centrifuged, appropriate amount of cell suspension was taken and placed in a new centrifuge tube, incubated with the target red label reagent for 20 min, washed and centrifuged with serum-free culture solution, then plated, and placed in an incubator for overnight cultivation to make them adhere to the wall. PBMC stimulated by PHA was added into the well plate in ratios of 1:1, 5:1, 10:1 and 20:1, and Incucyte real-time dynamic cell imaging system was used to observe the killing effect of lymphocytes on tumor cells under different target ratio conditions.
# Cal-27 cells in good growth statu were digested and centrifuged, incubated with red target labeling reagent for 20 min, and washed with serum-free culture solution. After the cells were adherence to the wall overnight, the PBMC stimulated by PHA was added to the well plate according to the effect-to-target ratio of 5:1 and co-cultured with Cal-27 cells. Ginsenoside Rh2 or ginsenoside Rg3 of medicament solution with different concentrations were prepared, and they and 5 μg/mL human anti-PD-1 antibody were added into the well plate for incubation, and were divided into control group, ginsenoside alone group, anti-PD-1 antibody alone group, ginsenoside and anti-PD-1 antibody combination group. The culture plates were placed into Incucyte real-time dynamic cell imaging analysis system for real-time monitoring.
# [3] = test system: tumor-infiltrating lymphocytes; assay: Tumor-infiltrating lymphocyte levels in mice tumor tissue (flow cytometry); assay type: in vivo; details: for number/abundance of T cells infiltrating into tumors: FIGS. 7A and 7D
# Description: (§1) The mice were randomly divided into four groups: model control group, ginsenoside Rh2 group (15 mg/kg), anti-PD-1 antibody group (200 μg/mice), and ginsenoside Rh2 in combination with anti-PD-1 antibody group. The administration time and volume were as follows: ginsenoside Rh2 was administered intragastrically 5 days before vaccination; anti-PD-1 antibody was administered intraperitoneally on days 3, 6, 9, and 12 after vaccination.
# (§2) SCC-7 cells were resuscitated and expanded in large quantities. Trypsin was added to digest and the cells were collected. After counted, the cells were re-suspended in PBS solution and the cell concentration was adjusted, and the mice were inoculated with 5*10^6 cells/0.2 mL in the right armpit.
# After the experiment, the mice's eyeballs were removed to collect blood, and the tumor tissue was peeled off. The tumor tissue was divided into two parts, one part was quickly frozen in liquid nitrogen and then transferred to a −80° C. refrigerator for storage, and the other part was stored in PBS solution for flow cytometry detection.
# Mice tumor samples were cut into pieces with sterile scissors, ground gently with a syringe stopper, and filtered through a 40 μm filter to prepare a single cell suspension. The cell suspension was transferred to a new centrifuge tube, PBS solution was added, the supernatant was discarded after centrifugation, and the remaining was washed with PBS and centrifuged again. PBS was added to re-suspended, 100 μL of resuspending solution was placed into the flow tube, the corresponding flow cytometry antibody was added for incubating and staining for 20 minutes, and then on-machine detection was performed.
# SCC-7 cells = assay: Tumor growth in head and neck squamous cell carcinoma-bearing mice; assay type: in vivo; details: FIG. 6A; alone, versus model control; Rh2 15 mg/kg intragastric; anti-PD-1 antibody 200 μg/mice intraperitoneal
# Description: SPF grade C57 mice, 6 weeks old, female, were purchased from Beijing Charles River Laboratories Animal Company. […] OF MEDICINAL PLANT DEVELOPMENT. The experimental facilities comply with barrier environmental standards, with a temperature of 20° C. to 26° C., a relative humidity of 40% to 70%, and light and dark alternating for 12 hours each. Mice were raised in standard boxes, with 5 mice per cage. During the raising process, the animals were allowed to eat and move freely.
# as §1, §2
# Throughout the experiment, the tumor volume of the mice was measured twice weekly.
# After the experiment, the mice's eyeballs were removed to collect blood, and the tumor tissue was peeled off. […]
# [4] = Rh2 as metabolite relative to ginsenoside Rg3; cited from earlier work
molecule,measurement,setting,value
CC(C)=CCC[C@](C)(O[C@@H]1O[C@H](CO)[C@@H](O)[C@H](O)[C@H]1O)[C@H]1CC[C@]2(C)[C@@H]1[C@H](O)C[C@@H]1[C@@]3(C)CC[C@H](O)C(C)(C)[C@@H]3CC[C@]12C [ginsenoside CK],inhibitory effect on Cal-27 cells,Cal-27 cells [1],most significant inhibitory effect
CC(C)=CCC[C@](C)(O[C@@H]1O[C@H](CO[C@@H]2O[C@H](CO)[C@@H](O)[C@H](O)[C@H]2O)[C@@H](O)[C@H](O)[C@H]1O)[C@H]1CC[C@]2(C)[C@@H]1[C@H](O)C[C@@H]1[C@@]3(C)CC[C@H](O[C@@H]4O[C@H](CO)[C@@H](O)[C@H](O)[C@H]4O[C@@H]4O[C@H](CO)[C@@H](O)[C@H](O)[C@H]4O)C(C)(C)[C@@H]3CC[C@]12C [ginsenoside Rb1],IC50,Cal-27 cells [1],~100 µM
same,inhibitory effect on Cal-27 cells,Cal-27 cells [1],concentration-dependent inhibitory effects
CC(C)=CCC[C@](C)(O[C@@H]1O[C@H](CO[C@@H]2OC[C@@H](O)[C@H](O)[C@H]2O)[C@@H](O)[C@H](O)[C@H]1O)[C@H]1CC[C@]2(C)[C@@H]1[C@H](O)C[C@@H]1[C@@]3(C)CC[C@H](O[C@@H]4O[C@H](CO)[C@@H](O)[C@H](O)[C@H]4O[C@@H]4O[C@H](CO)[C@@H](O)[C@H](O)[C@H]4O)C(C)(C)[C@@H]3CC[C@]12C [ginsenoside Rb3],IC50,Cal-27 cells [1],~100 µM
same,inhibitory effect on Cal-27 cells,Cal-27 cells [1],concentration-dependent inhibitory effects
CC(C)=CCC[C@](C)(O[C@@H]1O[C@H](CO[C@@H]2O[C@@H](CO)[C@H](O)[C@H]2O)[C@@H](O)[C@H](O)[C@H]1O)[C@H]1CC[C@]2(C)[C@@H]1[C@H](O)C[C@@H]1[C@@]3(C)CC[C@H](O[C@@H]4O[C@H](CO)[C@@H](O)[C@H](O)[C@H]4O[C@@H]4O[C@H](CO)[C@@H](O)[C@H](O)[C@H]4O)C(C)(C)[C@@H]3CC[C@]12C [ginsenoside Rc],inhibitory effect on Cal-27 cells,Cal-27 cells [1],concentration-dependent inhibitory effects
same,IC50,"Cal-27 cells [1]; Homo sapiens, CAL-27",~100 µM
CC(C)=CCC[C@](C)(O[C@@H]1O[C@H](CO)[C@@H](O)[C@H](O)[C@H]1O)[C@H]1CC[C@]2(C)[C@@H]1[C@H](O)C[C@@H]1[C@@]3(C)CC[C@H](O)C(C)(C)[C@@H]3[C@@H](O[C@@H]3O[C@H](CO)[C@@H](O)[C@H](O)[C@H]3O[C@@H]3O[C@@H](C)[C@H](O)[C@@H](O)[C@H]3O)C[C@]12C [ginsenoside Re],inhibitory effect on Cal-27 cells,Cal-27 cells [1],concentration-dependent inhibitory effects
same,IC50,"Cal-27 cells [1]; Homo sapiens, CAL-27",~100 µM
CC(C)=CCC[C@](C)(O[C@@H]1O[C@H](CO)[C@@H](O)[C@H](O)[C@H]1O)[C@H]1CC[C@]2(C)[C@@H]1[C@H](O)C[C@@H]1[C@@]3(C)CC[C@H](O)C(C)(C)[C@@H]3[C@@H](O[C@@H]3O[C@H](CO)[C@@H](O)[C@H](O)[C@H]3O)C[C@]12C [ginsenoside Rg1],IC50,Cal-27 cells [1],~100 µM
same,inhibitory effect on Cal-27 cells,Cal-27 cells [1],concentration-dependent inhibitory effects
CC(C)=CCC[C@](C)(O)[C@H]1CC[C@]2(C)[C@@H]1[C@H](O)C[C@@H]1[C@@]3(C)CC[C@H](O[C@@H]4O[C@H](CO)[C@@H](O)[C@H](O)[C@H]4O[C@@H]4O[C@H](CO)[C@@H](O)[C@H](O)[C@H]4O)C(C)(C)[C@@H]3CC[C@]12C [ginsenoside Rg3],killing effect of lymphocytes on tumor cells,Cal-27 cells [2],can promote the killing effect of lymphocytes
same,inhibitory effect on Cal-27 cells,Cal-27 cells [1],most significant inhibitory effect
CC(C)=CCC[C@](C)(O)[C@H]1CC[C@]2(C)[C@@H]1[C@H](O)C[C@@H]1[C@@]3(C)CC[C@H](O)C(C)(C)[C@@H]3[C@@H](O[C@@H]3O[C@H](CO)[C@@H](O)[C@H](O)[C@H]3O)C[C@]12C [ginsenoside Rh1],IC50,Cal-27 cells [1],~100 µM
same,inhibitory effect on Cal-27 cells,Cal-27 cells [1],concentration-dependent inhibitory effects
CC(C)=CCC[C@](C)(O)[C@H]1CC[C@]2(C)[C@@H]1[C@H](O)C[C@@H]1[C@@]3(C)CC[C@H](O[C@@H]4O[C@H](CO)[C@@H](O)[C@H](O)[C@H]4O)C(C)(C)[C@@H]3CC[C@]12C [ginsenoside Rh2],number of Cal-27 cells / killing effect of lymphocytes on tumor cells,Cal-27 cells [2],can reduce the number of Cal-27 cells
same,number/abundance of T cells infiltrating into tumors,[3],neither ginsenoside Rh2 nor anti-PD-1 antibody had a significant effect
same,proportion of B cell activation,"[3]; FIGS. 7C and 7F, P<0.05",significantly increase the proportion of B cell activation
same,tumor volume,SCC-7 cells,significantly reduce the tumor size
same,inhibitory effect on Cal-27 cells,Cal-27 cells [1],most significant inhibitory effect
same,content increased,[4],50 times
same,oral bioavailability increased,[4],5 times
pembrolizumab [anti-PD-1 antibody],number of Cal-27 cells / killing effect of lymphocytes on tumor cells,Cal-27 cells [2],can also significantly promote the killing effect of lymphocytes
same,killing effect of lymphocytes on tumor cells,Cal-27 cells [2],can significantly promote the killing effect of lymphocytes
same,number/abundance of T cells infiltrating into tumors,[3],neither ginsenoside Rh2 nor anti-PD-1 antibody had a significant effect
same,infiltration level of CD8+ T cells in tumors,"[3]; FIGS. 7B and 7E, P<0.05",increased significantly
same,tumor volume,SCC-7 cells,decreased slightly

# Reference: patent US20260256821A1, “USE OF GINSENOSIDE IN COMBINATION WITH PD-1 BLOCKER IN PREPARING MEDICAMENT AGAINST HEAD AND NECK SQUAMOUS CELL CARCINOMA” (CHINESE ACADEMY OF MEDICAL SCIENCES INSTITUTE OF MEDICINAL …, priority 2022, published 2026)
